# From PMC7010297, “How the initiating ribosome copes with ppGpp to translate mRNAs” (PLoS Biology, 2020)
# “And” between values parts separate entries of the source, which are not always exact repeats. Equal entries are not always repeated.
# How the values were obtained:
# IF2 = target: T1, IF2 (Escherichia coli, UniProt P0A705); experiment: IF2-Bpy-tRNAi-GNP ternary complex formation by MST; format: binding; conditions: S2A Fig
# T1 construct: 6xHis (N); made in house
# Description: Supplementary file pbio.3000593.s002.pdf: S2 Fig IF2-Bpy-tRNAi complex formation as a function of guanosine nucleotides. (A) IF2 concentration dependencies for Bpy-tRNAi binding in the presence of 0.5 mM of the indicated guanosine nucleotides to build IF2-tRNA-GNP ternary complexes (TCs). […] Three to five measurements were performed; mean and standard deviation are plotted (S1 Data). […] (PDF) Click here for additional data file.
# IF2-bound 30S IC = target: T2, IF2-bound 30S IC (Escherichia coli, UniProt P0A705); experiment: 30S IC formation by MST, guanosine nucleotide titration; format: binding; conditions: for MST Average / MST Replicates (a.u.): Fig 2B (GDP/ppGpp series);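 on MST Average: lower thermophoresis signal means Bpy-tRNAi dissociation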;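 on MST Replicates (a.u.): lower thermophoresis signal means Bpy-tRNAi dissociation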
# T2 construct: 6xHis (N); made in house
# T2 sequence (P0A705 whole entry, looked up): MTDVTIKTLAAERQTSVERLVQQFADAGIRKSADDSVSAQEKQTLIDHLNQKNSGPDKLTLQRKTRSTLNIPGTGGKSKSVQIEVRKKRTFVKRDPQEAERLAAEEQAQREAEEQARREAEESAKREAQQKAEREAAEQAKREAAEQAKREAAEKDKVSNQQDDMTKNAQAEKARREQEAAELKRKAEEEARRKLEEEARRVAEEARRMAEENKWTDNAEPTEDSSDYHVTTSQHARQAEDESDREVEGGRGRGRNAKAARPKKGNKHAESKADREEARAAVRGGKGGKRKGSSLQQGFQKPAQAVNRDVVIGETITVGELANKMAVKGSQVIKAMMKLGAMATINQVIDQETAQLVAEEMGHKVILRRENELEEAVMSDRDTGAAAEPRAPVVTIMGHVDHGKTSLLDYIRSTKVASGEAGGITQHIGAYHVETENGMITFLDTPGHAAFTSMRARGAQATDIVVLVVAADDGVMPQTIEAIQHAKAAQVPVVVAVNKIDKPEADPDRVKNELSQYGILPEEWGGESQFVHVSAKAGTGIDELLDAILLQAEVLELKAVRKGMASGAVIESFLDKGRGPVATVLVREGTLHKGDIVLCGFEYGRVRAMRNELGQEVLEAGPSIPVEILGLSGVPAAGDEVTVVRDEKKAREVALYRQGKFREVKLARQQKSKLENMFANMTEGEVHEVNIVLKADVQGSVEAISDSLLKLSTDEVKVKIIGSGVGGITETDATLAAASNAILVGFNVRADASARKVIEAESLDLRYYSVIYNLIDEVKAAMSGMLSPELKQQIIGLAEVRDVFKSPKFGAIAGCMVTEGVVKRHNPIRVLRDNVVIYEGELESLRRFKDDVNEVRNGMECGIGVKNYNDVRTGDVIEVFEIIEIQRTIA
# Outline: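 Binding of fluorescently labelled initiator tRNA (Bpy-tRNAi) to E. coli 30S subunits followed by microscale thermophoresis, titrating guanosine nucleotides at constant 1 μM IF2. Dissociation constants from quadratic nonlinear fits of Ff/Fi versus ligand concentration; three measurements, mean ± SD.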
# 70S IC = target: T3, 70S IC (Escherichia coli, UniProt P0A705); experiment: 70S IC formation by Bpy-tRNAi accommodation, stopped-flow; format: biochemical; set-up: K1, best-fit value: unit not given here; conditions: for A0, best-fit value / A1, best-fit value / K1, best-fit value / k2, best-fit value: fit Y=A0+A1*exp(-K1*x)+k2*x; for kfast (s-1) Avg: fluorescence
# T3 construct: 6xHis (N); made in house
# T3 sequence (P0A705 whole entry, looked up): as above
# Outline: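 Stopped-flow at 25 °C: 0.2 μM 30S ICs mixed with 0.6 μM 50S subunits; pre-IC formation followed by 90° light scattering (excitation 430 nm), accommodation by Bpy-tRNAi fluorescence (excitation 470 nm, 495-nm longpass). Averaged traces fitted by single or double exponentials to give kapp.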
# T1 sequence (P0A705 whole entry): as the sequence (P0A705 whole entry, looked up) above
smiles,measurement,setting,value
Nc1nc2c(ncn2[C@@H]2O[C@H](COP(=O)(O)OP(=O)(O)O)[C@@H](OP(=O)(O)OP(=O)(O)O)[C@H]2O)c(=O)[nH]1 [ppGpp],MST Average,IF2; IF2 0.08 µM,943.56 a.u.
same,MST Replicates,IF2; IF2 0.08 µM,950.05 a.u. and 945.75 a.u. and 934.87 a.u.
same,MST Average,IF2; IF2 0.16 µM,943.40 a.u.
same,MST Replicates,IF2; IF2 0.16 µM,949.30 a.u. and 935.29 a.u. and 945.62 a.u.
same,MST Average,IF2; IF2 0.31 µM,945.38 a.u.
same,MST Replicates,IF2; IF2 0.31 µM,948.56 a.u. and 936.80 a.u. and 950.79 a.u.
same,MST Average,IF2; IF2 0.63 µM,945.13 a.u.
same,MST Replicates,IF2; IF2 0.63 µM,936.31 a.u. and 947.81 a.u. and 951.27 a.u.
same,MST Average,IF2; IF2 1.25 µM,946.96 a.u.
same,MST Replicates,IF2; IF2 1.25 µM,952.23 a.u. and 948.54 a.u. and 940.12 a.u.
same,MST Average,IF2; IF2 2.50 µM,951.73 a.u.
same,MST Replicates,IF2; IF2 2.50 µM,945.20 a.u. and 956.43 a.u. and 953.55 a.u.
same,MST Average,IF2; IF2 5.00 µM,958.05 a.u.
same,MST Replicates,IF2; IF2 5.00 µM,952.00 a.u. and 959.98 a.u. and 962.17 a.u.
same,MST Average,IF2; IF2 10.00 µM,963.39 a.u.
same,MST Replicates,IF2; IF2 10.00 µM,958.44 a.u. and 964.79 a.u. and 966.94 a.u.
same,MST Average,IF2; IF2 20.00 µM,974.27 a.u.
same,MST Replicates,IF2; IF2 20.00 µM,972.33 a.u. and 976.56 a.u. and 973.92 a.u.
same,MST Average,IF2; IF2 40.00 µM,980.83 a.u.
same,MST Replicates,IF2; IF2 40.00 µM,982.65 a.u. and 981.22 a.u. and 978.62 a.u.
same,MST Average,IF2-bound 30S IC; nucleotide 0.13 µM,936.81 a.u.
same,MST Replicates (a.u.),"IF2-bound 30S IC; nucleotide 0.13 µM, constant IF2 (1 μM)",935.73 a.u. and 937.32 a.u. and 936.20 a.u. and 937.97 a.u.
same,MST Average,IF2-bound 30S IC; nucleotide 0.25 µM,935.17 a.u.
same,MST Replicates (a.u.),IF2-bound 30S IC; nucleotide 0.25 µM,933.09 a.u. and 935.35 a.u. and 935.04 a.u. and 937.21 a.u.
same,MST Average,IF2-bound 30S IC; nucleotide 0.50 µM,935.42 a.u.
same,MST Replicates (a.u.),IF2-bound 30S IC; nucleotide 0.50 µM,934.19 a.u. and 935.54 a.u. and 934.92 a.u. and 937.01 a.u.
same,MST Average,IF2-bound 30S IC; nucleotide 1.00 µM,934.04 a.u.
same,MST Replicates (a.u.),IF2-bound 30S IC; nucleotide 1.00 µM,932.40 a.u. and 934.21 a.u. and 934.12 a.u. and 935.41 a.u.
same,MST Average,IF2-bound 30S IC; nucleotide 2.00 µM,933.55 a.u.
same,MST Replicates (a.u.),IF2-bound 30S IC; nucleotide 2.00 µM,931.48 a.u. and 933.31 a.u. and 934.38 a.u. and 935.04 a.u.
same,MST Average,IF2-bound 30S IC; nucleotide 4.00 µM,931.78 a.u.
same,MST Replicates (a.u.),IF2-bound 30S IC; nucleotide 4.00 µM,930.04 a.u. and 931.00 a.u. and 932.61 a.u. and 933.45 a.u.
same,MST Average,IF2-bound 30S IC; nucleotide 8.00 µM,932.68 a.u.
same,MST Replicates (a.u.),IF2-bound 30S IC; nucleotide 8.00 µM,930.98 a.u. and 932.59 a.u. and 933.05 a.u. and 934.12 a.u.
same,MST Average,IF2-bound 30S IC; nucleotide 16.00 µM,932.30 a.u.
same,MST Replicates (a.u.),IF2-bound 30S IC; nucleotide 16.00 µM,931.44 a.u. and 932.29 a.u. and 931.81 a.u. and 933.65 a.u.
same,MST Average,IF2-bound 30S IC; nucleotide 31.00 µM,930.81 a.u.
same,MST Replicates (a.u.),IF2-bound 30S IC; nucleotide 31.00 µM,928.79 a.u. and 930.49 a.u. and 930.93 a.u. and 933.04 a.u.
same,MST Average,IF2-bound 30S IC; nucleotide 62.00 µM,932.86 a.u.
same,MST Replicates (a.u.),IF2-bound 30S IC; nucleotide 62.00 µM,931.23 a.u. and 932.53 a.u. and 932.57 a.u. and 935.11 a.u.
same,MST Average,IF2-bound 30S IC; nucleotide 125.00 µM,932.91 a.u.
same,MST Replicates (a.u.),IF2-bound 30S IC; nucleotide 125.00 µM,931.17 a.u. and 932.39 a.u. and 933.25 a.u. and 934.84 a.u.
same,promotion of Bpy-tRNAi binding (thermophoresis) in guanosine nucleotide titration,IF2-bound 30S IC; constant IF2 (1 μM),failed to promote Bpy-tRNAi binding at any concentration
same,efficiency (amplitude) of 70S IC formation (Bpy-tRNAi accommodation),"70S IC; 0.2 mM nucleotide, no GTP",reduced efficiencies
same,"A0, best-fit value",70S IC; mInfA,0.98
same,"A1, best-fit value",70S IC; mInfA,0.01
same,"K1, best-fit value",70S IC; mInfA,1.82
same,"k2, best-fit value",70S IC; mInfA,-0.00033
same,"A0, best-fit value",70S IC; mMF1,0.97
same,"A1, best-fit value",70S IC; mMF1,0.0267
same,"K1, best-fit value",70S IC; mMF1,1.27
same,"k2, best-fit value",70S IC; mMF1,-0.00023
same,Fluorescence Amplitude Avg,70S IC; mRNA mInfA,0.010
same,kfast (s-1) Avg,70S IC; mRNA mInfA,1.82 s⁻¹
same,Fluorescence Amplitude Avg,70S IC; mRNA mMF1,0.027
same,kfast (s-1) Avg,70S IC; mRNA mMF1,1.27 s⁻¹
same,Fluorescence Amplitude Avg,70S IC; mRNA mTufA,0.043
same,kfast (s-1) Avg,70S IC; mRNA mTufA,3.37 s⁻¹
same,"A0, best-fit value",70S IC; mTufA,0.96
same,"A1, best-fit value",70S IC; mTufA,0.0429
same,"K1, best-fit value",70S IC; mTufA,3.37
same,"k2, best-fit value",70S IC; mTufA,-0.00059
